Source: US8618289B2 (Ambit Biosciences Corporation, priority 2008, dated 2013)
Structures can show the parent of a compound that is named as a salt.

What was measured:
RAF kinases = RAF kinases (Homo sapiens, UniProt P15056, V600E); experiment: biochemical
A375 cells = experiment: cells; conditions: Homo sapiens, A-375, read-out: A375 Viability EC50
[1] = test system: MEK1 phosphorylation in the A375 human melanoma cell line; experiment: cells; conditions: A-375, read-out: pMEK IC50

Sequence of RAF kinases (P15056 whole entry V600E): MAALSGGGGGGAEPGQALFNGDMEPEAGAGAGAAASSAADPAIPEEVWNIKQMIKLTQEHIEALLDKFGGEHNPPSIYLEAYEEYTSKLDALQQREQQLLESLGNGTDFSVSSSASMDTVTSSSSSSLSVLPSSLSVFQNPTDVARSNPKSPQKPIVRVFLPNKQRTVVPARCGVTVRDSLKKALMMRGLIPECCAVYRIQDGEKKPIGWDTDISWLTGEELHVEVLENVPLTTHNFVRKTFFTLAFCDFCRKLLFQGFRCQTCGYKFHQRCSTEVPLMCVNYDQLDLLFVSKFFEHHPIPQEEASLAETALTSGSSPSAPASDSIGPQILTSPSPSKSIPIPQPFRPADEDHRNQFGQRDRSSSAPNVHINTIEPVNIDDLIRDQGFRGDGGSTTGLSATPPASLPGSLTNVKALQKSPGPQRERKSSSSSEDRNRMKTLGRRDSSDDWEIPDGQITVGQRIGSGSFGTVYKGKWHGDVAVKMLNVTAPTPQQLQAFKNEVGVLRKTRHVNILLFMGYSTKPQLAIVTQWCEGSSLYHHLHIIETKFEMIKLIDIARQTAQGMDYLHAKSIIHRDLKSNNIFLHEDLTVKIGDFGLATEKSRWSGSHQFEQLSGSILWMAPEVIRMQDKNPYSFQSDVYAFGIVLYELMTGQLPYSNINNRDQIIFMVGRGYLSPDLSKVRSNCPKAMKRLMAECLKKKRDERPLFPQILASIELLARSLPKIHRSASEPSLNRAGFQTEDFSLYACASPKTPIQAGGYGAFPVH

Q: `COc1cc2ncnc(Oc3cc(NC(=O)Nc4cc(C(C)(C)C)on4)ccc3Cl)c2cc1OC` [Ex 10, 1-(5-tert-butylisoxazol-3-yl)-3-(4-chloro-3-(6,7-dimethoxyquinazolin-4-yloxy)phenyl)urea] was tested. Which Kd (RAF kinases) did it give?
A: The Kd was 500 to 1000 nM.

Q: And the EC50 (A375 cells)?
A: The EC50 was greater than 1000 nM.

Q: What about the IC50 [1] of the same molecule?
A: Its IC50 is greater than 1000 nM.

Q: For `CCOc1cc2ncnc(Oc3cccc(NC(=O)Nc4cc(C(C)(C)C)on4)c3)c2cc1OCC` [Ex 13, 1-(5-tert-butylisoxazol-3-yl)-3-[3-(6,7-diethoxyquinazolin-4-yloxy)phenyl]urea hydrochloride], which Kd (RAF kinases) is on record?
A: The Kd was 250 to 500 nM.

Q: What about the EC50 (A375 cells) of the same molecule?
A: Its EC50 is 500 to 1000 nM.

Q: And the IC50 [1]?
A: The IC50 was 250 to 500 nM.

Q: What does the source list for `CC(C)(C)c1cc(NC(=O)Nc2cccc(Sc3ncnc4cc(F)c(F)cc34)c2)no1` [Ex 47, 1-(5-tert-butylisoxazol-3-yl)-3-(3-(6,7-difluoroquinazolin-4-ylthio)phenyl)urea]?
A: Kd (RAF kinases): 500 to 1000 nM; EC50 (A375 cells): > 1000 nM; IC50 [1]: > 1000 nM

Q: Which Kd (RAF kinases) does the source give for `COc1ccc2c(Sc3cccc(NC(=O)Nc4cc(C(C)(C)C)on4)c3)ncnc2c1` [Ex 48, 1-(5-tert-butylisoxazol-3-yl)-3-(3-(7-methoxyquinazolin-4-ylthio)phenyl)urea] here?
A: Its Kd is 250 to 500 nM.

Q: And the EC50 (A375 cells)?
A: The EC50 was greater than 1000 nM.

Q: And the IC50 [1]?
A: Its IC50 is 500 to 1000 nM.

Q: Which Kd (RAF kinases) does the source give for `CCOc1cc2ncnc(Sc3cccc(NC(=O)Nc4cc(C(C)(C)C)on4)c3)c2cc1OCC` [Ex 51, 1-(5-tert-butylisoxazol-3-yl)-3-[3-(6,7-diethoxyquinazolin-4-ylthio)phenyl]urea] here?
A: The Kd was 500 to 1000 nM.

Q: And the EC50 (A375 cells)?
A: The EC50 was greater than 1000 nM.

Q: What about the IC50 [1] of the same molecule?
A: The IC50 was 250 to 500 nM.

Q: `CC(C)(C)c1cc(NC(=O)Nc2cccc(Sc3ncnc4cc5c(cc34)OCCO5)c2)no1` [Ex 54, 1-(5-tert-butylisoxazol-3-yl)-3-[3-(7,8-dihydro-[1,4]dioxino[2,3-g]quinazolin-4-ylthio)phenyl]urea hydrochloride] was tested. Which Kd (RAF kinases) did it give?
A: Its Kd is 500 to 1000 nM.

Q: What about the EC50 (A375 cells) of the same molecule?
A: Its EC50 is greater than 1000 nM.

Q: What about the IC50 [1] of the same molecule?
A: Its IC50 is 500 to 1000 nM.

Q: For `COc1cc2c(Oc3cccc(NC(=O)Nc4cc(C(C)(C)C)on4)c3)ncnc2cc1O[C@H]1CCN(CC(F)F)C1` [Ex 103, (S)-1-(5-tert-butylisoxazol-3-yl)-3-(3-{7-[1-(2,2-difluoroethyl)pyrrolidin-3-yloxy]-6-methoxyquinazolin-4-yloxy}phenyl)urea], which Kd (RAF kinases) is on record?
A: Its Kd is 250 to 500 nM.

Q: What about the EC50 (A375 cells) of the same molecule?
A: The EC50 was greater than 1000 nM.

Q: And the IC50 [1]?
A: Its IC50 is 500 to 1000 nM.

Q: What does the source list for `COc1cc2ncnc(Oc3cccc(NC(=O)Nc4cc(C(C)(C)C)on4)c3)c2cc1O[C@H]1CCN(C(=O)OC(C)(C)C)C1` [Ex 108, (S)-tert-butyl 3-(4-(3-(3-(5-tert-butylisoxazole-3-yl)ureido)phenoxy)-7-methoxyquinazolin-6-yloxy)pyrrolidine-1-carboxylate]?
A: Kd (RAF kinases): 500 to 1000 nM; EC50 (A375 cells): 500 to 1000 nM; IC50 [1]: < 250 nM

Q: Which results are given for `COCC(C)(C)c1cc(NC(=O)Nc2cccc(Oc3ncnc4cc(OC)c(OC)cc34)c2)no1` [Ex 130, 1-(3-(6,7-dimethoxyquinazolin-4-yloxy)phenyl)-3-(5-(1-methoxy-2-methylpropan-2-yl)isoxazol-3-yl)urea]?
A: Kd (RAF kinases): 250 to 500 nM; EC50 (A375 cells): > 1000 nM; IC50 [1]: 250 to 500 nM

Q: How did the Kd (RAF kinases) turn out when `COCCOc1cc(NC(=O)Nc2cccc(Sc3ncnc4cc(OC)c(OC)cc34)c2)ccc1C(F)(F)F` [Ex 148, 1-(3-(6,7-dimethoxyquinazolin-4-ylthio)phenyl)-3-(3-(2-methoxyethoxy)-4-(trifluoromethyl)phenyl)urea] was run?
A: The Kd was 500 to 1000 nM.

Q: And the EC50 (A375 cells)?
A: Its EC50 is greater than 1000 nM.

Q: And the IC50 [1]?
A: The IC50 was greater than 1000 nM.

Q: How did the Kd (RAF kinases) turn out when `COc1cc2ncnc(Oc3cccc(NC(=O)Nc4cc(C(=O)N5CCOCC5)cc(C(F)(F)F)c4)c3)c2cc1OC` [Ex 149, 1-(3-(6,7-dimethoxyquinazolin-4-yloxy)phenyl)-3-(3-(morpholine-4-carbonyl)-5-(trifluoromethyl)phenyl)urea] was run?
A: The Kd was 500 to 1000 nM.

Q: What about the EC50 (A375 cells) of the same molecule?
A: Its EC50 is greater than 1000 nM.

Q: And the IC50 [1]?
A: The IC50 was greater than 1000 nM.

Q: How did the Kd (RAF kinases) turn out when `COc1cc2ncnc(Oc3cccc(NC(=O)Nc4cc(C5(C(F)(F)F)CCC5)no4)c3)c2cc1OC` [Ex 155, 1-(3-(6,7-dimethoxyquinazolin-4-yloxy)phenyl)-3-(3-(1-(trifluoromethyl)cyclobutyl)isoxazol-5-yl)urea] was run?
A: The Kd was 250 to 500 nM.

Q: And the EC50 (A375 cells)?
A: The EC50 was greater than 1000 nM.

Q: What about the IC50 [1] of the same molecule?
A: Its IC50 is 250 to 500 nM.

Q: How did the Kd (RAF kinases) turn out when `COc1cc2ncnc(Sc3cccc(NC(=O)Nc4cc(C5(C(F)(F)F)CCC5)no4)c3)c2cc1OC` [Ex 156, 1-(3-(6,7-dimethoxyquinazolin-4-ylthio)phenyl)-3-(3-(1-(trifluoromethyl)cyclobutyl)isoxazol-5-yl)urea] was run?
A: The Kd was 500 to 1000 nM.

Q: What about the EC50 (A375 cells) of the same molecule?
A: Its EC50 is greater than 1000 nM.

Q: What about the IC50 [1] of the same molecule?
A: The IC50 was 500 to 1000 nM.

Q: `COc1cc2ncnc(Oc3cccc(NC(=O)Nc4cc(C(F)(F)F)nn4-c4ccccc4)c3)c2cc1OC` [Ex 161, 1-[3-(6,7-dimethoxyquinazolin-4-yloxy)phenyl]-3-[1-phenyl-3-(trifluoromethyl)-1H-pyrazol-5-yl]urea] was tested. Which Kd (RAF kinases) did it give?
A: The Kd was 500 to 1000 nM.

Q: What about the EC50 (A375 cells) of the same molecule?
A: Its EC50 is 250 to 500 nM.

Q: And the IC50 [1]?
A: The IC50 was less than 250 nM.

Q: `CCOC(=O)Cn1nc(C(C)(C)C)cc1NC(=O)Nc1cccc(Oc2ncnc3cc(OC)c(OC)cc23)c1` [Ex 166, ethyl 2-(3-tert-butyl-5-{3-[3-(6,7-dimethoxyquinazolin-4-yloxy)phenyl]ureido}-1H-pyrazol-1-yl)acetate] was tested. Which Kd (RAF kinases) did it give?
A: The Kd was 250 to 500 nM.

Q: And the EC50 (A375 cells)?
A: Its EC50 is greater than 1000 nM.

Q: What about the IC50 [1] of the same molecule?
A: Its IC50 is 500 to 1000 nM.

Q: How did the Kd (RAF kinases) turn out when `CCOC(C)(C)c1cc(NC(=O)Nc2cccc(Oc3ncnc4cc(OC)c(OC)cc34)c2)n(-c2ccccc2)n1` [Ex 168, 1-[3-(6,7-dimethoxyquinazolin-4-yloxy)phenyl]-3-[3-(2-ethoxypropan-2-yl)-1-phenyl-1H-pyrazol-5-yl]urea] was run?
A: The Kd was 500 to 1000 nM.

Q: And the EC50 (A375 cells)?
A: The EC50 was greater than 1000 nM.

Q: And the IC50 [1]?
A: Its IC50 is less than 250 nM.

Q: What does the source list for `COc1cc2ncnc(Oc3cccc(NC(=O)Nc4cc(C(F)(F)F)nn4-c4ccc(F)cc4)c3)c2cc1OC` [Ex 171, 1-[3-(6,7-dimethoxyquinazolin-4-yloxy)phenyl]-3-[1-(4-fluorophenyl)-3-(trifluoromethyl)-1H-pyrazol-5-yl]urea]?
A: Kd (RAF kinases): 500 to 1000 nM; EC50 (A375 cells): 250 to 500 nM; IC50 [1]: 250 to 500 nM

Q: For `COc1cc2ncnc(Oc3cccc(NC(=O)Nc4cc(C(F)(F)F)nn4-c4ccc(C)cc4)c3)c2cc1OC` [Ex 172, 1-[3-(6,7-dimethoxyquinazolin-4-yloxy)phenyl]-3-[1-p-tolyl-3-(trifluoromethyl)-1H-pyrazol-5-yl]urea], which Kd (RAF kinases) is on record?
A: The Kd was 500 to 1000 nM.

Q: What about the EC50 (A375 cells) of the same molecule?
A: Its EC50 is less than 250 nM.

Q: And the IC50 [1]?
A: Its IC50 is less than 250 nM.

Q: Which results are given for `COc1cc2ncnc(Sc3cccc(NC(=O)Nc4ccc(Cl)c(C(F)(F)F)c4)c3)c2cc1OC` [Ex 186, 1-(4-chloro-3-(trifluoromethyl)phenyl)-3-(3-(6,7-dimethoxyquinazolin-4-ylthio)phenyl)urea]?
A: Kd (RAF kinases): 250 to 500 nM; EC50 (A375 cells): 500 to 1000 nM; IC50 [1]: 250 to 500 nM

Q: Which results are given for `COc1cc2ncnc(Sc3cccc(NC(=O)Nc4ccc(C(F)(F)F)c(OC)c4)c3)c2cc1OC` [Ex 190, 1-(3-(6,7-dimethoxyquinazolin-4-ylthio)phenyl)-3-(3-methoxy-4-(trifluoromethyl)phenyl)urea]?
A: Kd (RAF kinases): 500 to 1000 nM; EC50 (A375 cells): > 1000 nM; IC50 [1]: > 1000 nM

Q: How did the Kd (RAF kinases) turn out when `COc1cc2ncnc(Sc3cccc(NC(=O)Nc4cc(C(F)(F)F)nn4-c4ccccc4)c3)c2cc1OC` [Ex 192, 1-[3-(6,7-dimethoxyquinazolin-4-ylthio)phenyl]-3-[1-phenyl-3-(trifluoromethyl)-1H-pyrazol-5-yl]urea] was run?
A: Its Kd is 500 to 1000 nM.

Q: What about the EC50 (A375 cells) of the same molecule?
A: The EC50 was 250 to 500 nM.

Q: What about the IC50 [1] of the same molecule?
A: Its IC50 is less than 250 nM.

Q: Which Kd (RAF kinases) does the source give for `CCOC(=O)Cn1nc(C(C)(C)C)cc1NC(=O)Nc1cccc(Sc2ncnc3cc(OC)c(OC)cc23)c1` [Ex 195, ethyl 2-(3-tert-butyl-5-{3-[3-(6,7-dimethoxyquinazolin-4-ylthio)phenyl]ureido}-1H-pyrazol-1-yl)acetate] here?
A: The Kd was 250 to 500 nM.

Q: And the EC50 (A375 cells)?
A: Its EC50 is greater than 1000 nM.

Q: And the IC50 [1]?
A: The IC50 was 250 to 500 nM.
